Assay results published in patent US20090124539A1, “Methods of treating infection” (priority 2007, published 2009).
Values after ≈ are worked out from the molar mass of the structure shown. Like-named read-outs stand apart in the source and are kept apart here.

Legend:
[1] = system: Enterococcus faecalis; conditions: quality control range for Enterococcus faecalis ATCC 29212 (# 101); cited from earlier work
[2] = system: Staphylococcus epidermidis; assay: MIC, broth microdilution (CLSI); type: cell-based; conditions: read-out: MIC
Method: (§1) The solvent for all of the compounds was deionized water (DIW), and all of the compounds dissolved in the solvent. The stock solutions were allowed to stand in DIW for one hour at room temperature prior to testing to allow time for auto-sterilization.
(§2) The test organisms were originally received from clinical sources, or from the American Type Culture Collection. When received, the organisms were sub-cultured onto an appropriate agar medium. Following incubation, colonies were harvested from these plates and cell suspensions prepared and frozen at −80° C. On the day prior to assay, a frozen vial of each culture was thawed and the contents were streaked for isolation onto either Tryptic Soy Agar (Becton Dickinson, Sparks, Md.) or Tryptic Soy Agar (Enhanced Hemolysis; Becton Dickinson) supplemented with 5% sheep blood for streptococci. The agar plates were incubated overnight at 35° C. Staphylococcus aureus ATCC 29213 and Enterococcus faecalis ATCC 29212 were included as quality control isolates in the assay.
(§3) The test medium for the broth microdilution testing was Mueller Hinton II broth (MHB II; BBL# 212322, Lot # 6024003, Becton Dickinson). The broth was prepared at 1.05× normal weight/volume to offset the 5% volume of the drug solution in the final test plates.
(§4) CLSI guidelines recommend that Mueller-Hinton II broth be adjusted to contain 50 mg/L of Ca^++ ions for proper daptomycin MIC results. Since Mueller-Hinton II broth has already been adjusted by the manufacturer to contain approximately 25 mg/L of Ca^++ ions, an additional 25 mg/L of Ca^++ ions was adjusted with 10 mg/mL of CaCl2.2H2O (Lot# 084K0215; Sigma-Aldrich) added at a rate of 0.1 mL/L of broth, for each desired increment of 1 mg/L. This supplemented Mueller-Hinton II broth was used only in wells containing daptomycin.
(§5) MIC values were determined using a broth microdilution method as recommended by the Clinical and Laboratory Standards Institute (Clinical and Laboratory Standards Institute^a. Methods for Dilution Antimicrobial Susceptibility Tests for Bacteria That Grow Aerobically; Approved Standard-Seventh Edition. Clinical and Laboratory Standards Institute document M7-A7 [ISBN 1-56238-587-9]. Clinical and Laboratory Standards Institute, 940 West Valley Road, Suite 1400, Wayne, Pa. 19087-1898 USA, 2006). Automated liquid handlers (Multidrop 384, Labsystems, Helsinki, Finland; Biomek 2000 and Multimek 96, Beckman Coulter, Fullerton Calif.) were used to conduct serial dilutions and make liquid transfers.
(§6) Wells of two standard 96-well microdilution plates (Falcon 3918; Becton Dickinson) were filled with 150 μL of […] using the Multidrop 384. These plates were used to prepare the drug “mother plates” that provided the serial drug dilutions for replicate “daughter plates”. The Biomek 2000 was used to transfer 150 μl of each stock solution from the wells of column 1 of a deep well plate to the corresponding wells in column 1 of the mother plate and to make eleven 2-fold serial dilutions in the mother plates. The wells of column 12 contained no drug and were the organism growth control wells. Each mother plate has the capacity to create a total of 12 daughter plates.
(§7) The daughter plates were loaded with 180 μL of one of the media described above using the Multidrop 384. The wells of the daughter plates ultimately contained 180 μL of MHB II, 10 μL of drug solution, and 10 μL of bacterial inoculum prepared in broth appropriate to the test organism (1.05×). The daughter plates were prepared on the Multimek 96 instrument, which transferred 10 μL of drug solution from each well of the mother plate to each corresponding well of each daughter plate in a single step. […]

[3] = system: Enterococcus faecalis; assay: MIC, broth microdilution (CLSI); type: cell-based; conditions: Enterococcus faecalis, read-out: MIC
Method: as §1, §2, §3, §4, §5, §6, §7

[4] = system: Streptococcus pneumoniae; assay: MIC, broth microdilution (CLSI); type: cell-based; conditions: Streptococcus pneumoniae, read-out: MIC
Method: as §1, §2, §3
For streptococci, lysed horse blood (Lot # H88621; Cleveland Scientific, Bath, Ohio) was added to the MHB II at a final concentration of 2%. […]
as §5, §6
(§8) The daughter plates were loaded with 180 μL of one of the media described above using the Multidrop 384. The wells of the daughter plates ultimately contained 180 μL of MHB II, 10 μL of drug solution, and 10 μL of bacterial inoculum prepared in broth appropriate to the test organism (1.05×). The daughter plates were prepared on the Multimek 96 instrument, which transferred 10 μL of drug solution from each well of the mother plate to each corresponding well of each daughter plate in a single step.
Standardized inoculum of each organism was prepared following Clinical and Laboratory Standards Institute (Clinical and Laboratory Standards Institute^b. Performance Standards for Antimicrobial Susceptibility Testing; Sixteenth Informational Supplement. CLSI document M100-S16 [ISBN 1-56238-588-7]. Clinical and Laboratory Standards Institute, 940 West Valley Road, Suite 1400, Wayne, Pa. 19087-1898 USA, 2006) methods. The inoculum for each organism was dispensed into sterile reservoirs divided by length (Beckman Coulter), and the Biomek 2000 was used to inoculate the plates. […]

[5] = system: Staphylococcus aureus; conditions: quality control range for Staphylococcus aureus ATCC 29213 (# 100); cited from earlier work
[6] = system: Streptococcus pyogenes; assay: MIC, broth microdilution (CLSI); type: cell-based
Method: as §1, §2, §3
For streptococci, lysed horse blood (Lot # H88621; Cleveland Scientific, Bath, Ohio) was added to the MHB II at a final concentration of 2%.
as §4, §5, §6, §7

[7] = system: Staphylococcus aureus; assay: MIC, broth microdilution (CLSI); type: cell-based; conditions: Staphylococcus aureus, read-out: MIC
Method: (§9) The stock solutions were allowed to stand in DIW for one hour at room temperature prior to testing to allow time for auto-sterilization.
as §2, §3, §4, §5, §6, §8

[8] = system: Enterococcus faecium; assay: MIC, broth microdilution (CLSI); type: cell-based; conditions: Enterococcus faecium, read-out: MIC
Method: as §9, §2, §3, §4, §5, §6, §8

[9] = Staphylococcus epidermidis Micromyx # 108, MRSE
[10] = Staphylococcus epidermidis Micromyx # 835, MSSE
[11] = ATCC29212, Enterococcus faecalis Micromyx # 101, VSE, CLSI QC strain (ATCC 29212)
[12] = Enterococcus faecalis Micromyx # 413, LZD^R from res. dev. or other
[13] = Enterococcus faecalis Micromyx # 486, Van A
[14] = Enterococcus faecalis Micromyx # 1088, Van B
[15] = Streptococcus pneumoniae Micromyx # 374, Wild type
[16] = Streptococcus pneumoniae Micromyx # 379, parC, gyrA, gyrB
[17] = Streptococcus pneumoniae Micromyx # 927, mef(A)
[18] = Streptococcus pneumoniae Micromyx # 928, erm(B)
[19] = Streptococcus pyogenes Micromyx # 942, macrolide^R
[20] = Streptococcus pyogenes Micromyx # 985, Susceptible, read-out: MIC
[21] = ATCC 29213 / MSSA, Staphylococcus aureus Micromyx # 100, MSSA, CLSI QC strain (ATCC 29213)
[22] = MRSA, Staphylococcus aureus Micromyx # 1004, MRSA, FA^R
[23] = MRSA, Staphylococcus aureus Micromyx # 1730, Community-acquired MRSA
[24] = MSSA, Staphylococcus aureus Micromyx # 1002, MSSA, macrolide^R
[25] = Staphylococcus aureus Micromyx # 106, RA^R
[26] = Staphylococcus aureus Micromyx # 1016, FA^R
[27] = Staphylococcus aureus Micromyx # 1651, LZD^R clinical isolate
[28] = Staphylococcus aureus Micromyx # 1727, GM^R
[29] = Staphylococcus aureus Micromyx # 1731, CHL^R
[30] = VISA, Staphylococcus aureus Micromyx # 1723, VISA
[31] = Enterococcus faecium Micromyx # 750, Van^S
[32] = Enterococcus faecium Micromyx # 752, Van A
[33] = Enterococcus faecium Micromyx # 1120, Van B
[34] = Enterococcus faecium Micromyx # 1721, DAP^R

SMILES	MIC, CLSI Recommended Range [1]	MIC [2, 9]	MIC [2, 10]	MIC [3, 11]	MIC [3, 12]	MIC [3, 13]	MIC [3, 14]	MIC [4, 15]	MIC [4, 17]	MIC [4, 18]	MIC, CLSI Recommended Range [5]	MIC [6, 19]	MIC [6, 20]	MIC [7, 21]	MIC [7, 22]	MIC [7, 23]	MIC [7, 24]	MIC [7, 26]	MIC [7, 28]	MIC [7, 29]	also measured
CCCCCCCCCC(=O)N[C@@H](Cc1c[nH]c2ccccc12)C(=O)N[C@H](CC(N)=O)C(=O)N[C@@H](CC(=O)O)C(=O)N[C@@H]1C(=O)NCC(=O)N[C@@H](CCCN)C(=O)N[C@@H](CC(=O)O)C(=O)N[C@H](C)C(=O)N[C@@H](CC(=O)O)C(=O)NCC(=O)N[C@H](CO)C(=O)N[C@@H]([C@H](C)CC(=O)O)C(=O)N[C@@H](CC(=O)c2ccccc2N)C(=O)O[C@@H]1C [Daptomycin]	1 to 4 µg/mL	0.5 µg/mL (≈ 0.309 µM)	0.5 µg/mL (≈ 0.309 µM)	1 µg/mL (≈ 0.617 µM)	0.5 µg/mL (≈ 0.309 µM)	0.5 µg/mL (≈ 0.309 µM)	1 µg/mL (≈ 0.617 µM)	≤ 0.12 µg/mL	≤ 0.12 µg/mL	≤ 0.12 µg/mL	0.25 to 1 µg/mL	≦0.12 μg/mL	≤ 0.12 µg/mL	0.5 µg/mL (≈ 0.309 µM)	0.25 µg/mL (≈ 0.154 µM)	0.5 µg/mL (≈ 0.309 µM)	0.5 µg/mL (≈ 0.309 µM)	0.25 µg/mL (≈ 0.154 µM)	0.25 µg/mL (≈ 0.154 µM)	0.25 µg/mL (≈ 0.154 µM)	MIC [4, 16]: 0.25 µg/mL (≈ 0.154 µM); MIC [7, 25]: 0.5 µg/mL (≈ 0.309 µM); MIC [7, 27]: 0.5 µg/mL (≈ 0.309 µM); MIC [7, 30]: 1 µg/mL (≈ 0.617 µM); MIC [8, 31]: ≤ 0.12 µg/mL; MIC [8, 32]: 2 µg/mL (≈ 1.23 µM); MIC [8, 33]: 2 µg/mL (≈ 1.23 µM); MIC [8, 34]: 8 µg/mL (≈ 4.94 µM)
CC(=O)NC[C@H]1CN(c2ccc(N3CCOCC3)c(F)c2)C(=O)O1 [Linezolid, linezolid]	1 to 4 µg/mL	4 µg/mL (≈ 11.9 µM)	4 µg/mL (≈ 11.9 µM)	8 µg/mL (≈ 23.7 µM)	64 µg/mL (≈ 190 µM)	4 µg/mL (≈ 11.9 µM)	4 µg/mL (≈ 11.9 µM)	4 µg/mL (≈ 11.9 µM)	2 µg/mL (≈ 5.93 µM)	2 µg/mL (≈ 5.93 µM)	1 to 4 µg/mL	4 µg/mL (≈ 11.9 µM)	4 µg/mL (≈ 11.9 µM)	8 µg/mL (≈ 23.7 µM)	4 µg/mL (≈ 11.9 µM)	8 µg/mL (≈ 23.7 µM)	4 µg/mL (≈ 11.9 µM)	8 µg/mL (≈ 23.7 µM)	4 µg/mL (≈ 11.9 µM)	8 µg/mL (≈ 23.7 µM)	MIC [7, 25]: 4 µg/mL (≈ 11.9 µM); MIC [7, 27]: 64 µg/mL (≈ 190 µM); MIC [7, 30]: 4 µg/mL (≈ 11.9 µM); MIC [8, 31]: 4 µg/mL (≈ 11.9 µM); MIC [8, 32]: 4 µg/mL (≈ 11.9 µM); MIC [8, 33]: 4 µg/mL (≈ 11.9 µM); MIC [8, 34]: 2 µg/mL (≈ 5.93 µM)
Cc1onc(-c2ccccc2)c1C(=O)N[C@@H]1C(=O)N2[C@@H]1SC(C)(C)[C@@H]2C(=O)O [Oxacillin, oxacillin]	8 to 32 µg/mL	64 µg/mL (≈ 159 µM)	≤ 0.12 µg/mL	16 µg/mL (≈ 39.9 µM)	64 µg/mL (≈ 159 µM)	16 µg/mL (≈ 39.9 µM)	16 µg/mL (≈ 39.9 µM)	16 µg/mL (≈ 39.9 µM)	16 µg/mL (≈ 39.9 µM)	16 µg/mL (≈ 39.9 µM)	0.12 to 0.5 µg/mL	≦0.12 μg/mL	≤ 0.12 µg/mL	0.25 µg/mL (≈ 0.623 µM)	16 µg/mL (≈ 39.9 µM)	32 µg/mL (≈ 79.7 µM)	0.5 µg/mL (≈ 1.25 µM)	32 µg/mL (≈ 79.7 µM)	0.25 µg/mL (≈ 0.623 µM)	0.25 µg/mL (≈ 0.623 µM)	MIC ([4]; Streptococcus pneumoniae Micromyx # 375, parC, gyrB): ≤ 0.12 µg/mL; MIC ([4]; Streptococcus pneumoniae Micromyx # 376, parC, gyrA): ≤ 0.12 µg/mL; MIC [4, 16]: ≤ 0.12 µg/mL; MIC [8, 31]: 4 µg/mL (≈ 9.96 µM); MIC [8, 34]: 32 µg/mL (≈ 79.7 µM)
